What is called melting point is the temperature, or range, at which the solid turns liquid.

This is an account of results in patent US8937184B2, “1H-imidazole derivatives as cannabinoid CB2 receptor modulators” (Abbvie B.V., priority 2005, dated 2015).

Read-outs that look alike come from different tables or passages of the source.

Data set [1] has as its target T1, human cannabinoid CB2 receptor (Homo sapiens, UniProt P34972).
T1 construct: expressed in transfected cells; host or cells: Chinese hamster ovary (CHO) cells, membrane preparation
Briefly: In vitro affinity for cannabinoid-CB2 receptors ([3H]CP-55,940 radioligand binding, CHO cell membranes). Here is the method:
The affinity of the compounds of the invention for cannabinoid CB2 receptors can be determined using membrane preparations of Chinese hamster ovary (CHO) cells in which the human cannabinoid CB2 receptor is stably transfected in conjunction with [^3H]CP-55,940 as radioligand. After incubation of a freshly prepared cell membrane preparation with the [^3H]-ligand, with or without addition of compounds of the invention, separation of bound and free ligand is performed by filtration over glassfiber filters. Radioactivity on the filter is measured by liquid scintillation counting.
The affinity of the compounds of the invention for cannabinoid CB2 receptors was determined as described above. From the binding affinity measured for a given compound of formula (I), one can estimate a theoretical lowest effective dose. At a concentration of the compound equal to twice the measured Ki-value, […] of the cannabinoid CB2 receptors likely will be occupied by the compound. Converting that concentration to mg of compound per kg of patient yields a theoretical lowest effective dose, assuming ideal bioavailability. Pharmacokinetic, pharmacodynamic, and other considerations may alter the dose actually administered to a higher or lower value. The dosage expediently administered is 0.001-1000 mg/kg, such as 0.1-100 mg/kg of patient's bodyweight.

Data set [2] addresses T2, human cannabinoid CB1 receptor (Homo sapiens, UniProt P21554).
T2 construct: expressed in transfected cells; host or cells: Chinese hamster ovary (CHO) cells, membrane preparation
Briefly: In vitro affinity for cannabinoid-CB1 receptors ([3H]CP-55,940 radioligand binding, CHO cell membranes). Here is the method: The affinity of the compounds of the invention for cannabinoid CB1 receptors can be determined using membrane preparations of Chinese hamster ovary (CHO) cells in which the human cannabinoid CB1 receptor is stably transfected in conjunction with [^3H]CP-55,940 as radioligand. After incubation of a freshly prepared cell membrane preparation with the [^3H]-ligand, with or without addition of compounds of the invention, separation of bound and free ligand is performed by filtration over glassfiber filters. Radioactivity on the filter is measured by liquid scintillation counting.

The mark [3] stands for this setting: membranes of CHO cells stably transfected with human CB2 receptor, [3H]CP-55,940 radioligand, read-out: Human cannabinoid-CB2 receptor In vitro affinity - pKi value (converted).

T1 sequence (P34972 whole entry): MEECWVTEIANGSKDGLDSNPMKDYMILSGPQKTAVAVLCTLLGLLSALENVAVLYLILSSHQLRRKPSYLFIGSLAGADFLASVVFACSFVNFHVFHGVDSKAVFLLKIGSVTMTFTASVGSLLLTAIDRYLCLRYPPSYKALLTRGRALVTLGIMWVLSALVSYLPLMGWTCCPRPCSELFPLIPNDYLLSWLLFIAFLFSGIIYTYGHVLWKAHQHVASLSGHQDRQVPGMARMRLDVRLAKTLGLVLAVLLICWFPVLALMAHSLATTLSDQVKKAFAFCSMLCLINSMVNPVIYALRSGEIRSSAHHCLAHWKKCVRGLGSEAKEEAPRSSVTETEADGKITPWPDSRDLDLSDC
T2 sequence (P21554 whole entry): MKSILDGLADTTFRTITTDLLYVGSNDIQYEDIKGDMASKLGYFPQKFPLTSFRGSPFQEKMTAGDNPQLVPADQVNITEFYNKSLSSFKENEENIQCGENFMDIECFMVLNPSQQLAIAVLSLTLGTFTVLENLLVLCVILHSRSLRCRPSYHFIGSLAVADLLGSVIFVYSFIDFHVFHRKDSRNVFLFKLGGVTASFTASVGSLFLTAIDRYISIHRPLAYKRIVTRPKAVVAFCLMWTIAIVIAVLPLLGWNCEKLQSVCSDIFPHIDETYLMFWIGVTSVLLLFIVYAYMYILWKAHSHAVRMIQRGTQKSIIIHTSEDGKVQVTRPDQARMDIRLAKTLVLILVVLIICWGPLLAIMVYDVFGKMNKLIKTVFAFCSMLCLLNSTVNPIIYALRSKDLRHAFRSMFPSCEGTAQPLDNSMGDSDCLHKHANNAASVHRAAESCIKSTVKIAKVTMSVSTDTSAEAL

The molecule `Cc1c(C(=O)NC23CC4CC(CC(C4)C2)C3)ncn1Cc1ccccc1` registered a melting point of 182 to 184 °C. Still for that read-out and setting: then `Cc1c(C(=O)N[C@H]2C(C)(C)[C@H]3CC[C@]2(C)C3)ncn1CCCNS(C)(=O)=O`, with 149 to 156 °C. Regarding `O=C(NC12CC3CC(CC(C3)C1)C2)c1nc(Br)n(-c2ccccc2)c1Br`, the melting point fell in the range of 228 to 231 °C.

The molecule `Cc1c(C(=O)Nc2cccc3ccccc23)ncn1-c1ccccc1` showed a melting point of 167 to 169 °C. The same measure, in the same setting: the figure for `O=C(NC12CC3CC(CC(C3)C1)C2)c1nc(Cl)n(-c2ccccc2)c1Cl` is 172 to 173 °C. `Cc1nc(C(=O)Nc2cccc3ccccc23)c(C)n1-c1ccccc1.Cl` showed a melting point of 177 to 179 °C.

Turning to `Cc1nc(C(=O)N[C@@H]2C(C)(C)C3CC[C@@]2(C)C3)c(C)n1-c1ccccc1`, the melting point lay in the range of 130 to 132 °C. Same read-out and setting: then `Cc1c(C(=O)N[C@H]2C(C)(C)[C@H]3CC[C@]2(C)C3)ncn1-c1ccccc1`, with 149 to 152 °C; and `Cc1nc(C(=O)NC23CC4CC(CC2C4)C3)c(C)n1-c1ccccc1`, with 147 to 150 °C; and `Cc1nc(C(=O)Nc2ccnc3cc(C(F)(F)F)ccc23)c(C)n1-c1ccccc1`, with 198.5 °C.

The molecule `Cc1nc(C(=O)Nc2ccc(C#N)c3ccccc23)c(C)n1-c1ccccc1` showed a melting point of 241.5 °C.

Consider `CCCCc1c(C(=O)NC23CC4CC(CC(C4)C2)C3)nc(C)n1-c1ccccc1`, for which the melting point fell in the range of 171 to 172 °C.

In turn, `Cc1nc(C(=O)NC23CC4CC(CC(C4)C2)C3)c(C)n1-c1ccc2c(c1)OCCO2.Cl` showed a melting point of 221 to 223 °C.

In turn, `Cc1nc(C(=O)NN2CCCCC2)c(C)n1-c1ccccc1` gave a melting point of 117 to 118 °C. On the same count and under the same terms, then `CCc1nc(C(=O)Nc2cccc3ccccc23)c(CC)n1-c1ccccc1`, with 123 to 125 °C. Consider `COC(=O)[C@H](Cc1ccccc1)NC(=O)c1cn(CCOc2ccccc2)cn1` [BMS-I, reference compound], for which, in data set [1], the Ki is 398 nM. On the same count and under the same terms, the figure for `COC(=O)[C@H](Cc1ccccc1)NC(=O)c1cn(CCN2CCOCC2)cn1` [BMS-II, reference compound] is > 1000 nM; for `CCCCCn1cnc(C(=O)N[C@@H](Cc2ccccc2)C(=O)OC)c1` [BMS-III, reference compound] it is 63.1 nM. In turn, `Cc1c(C(=O)NC23CC4CC(CC(C4)C2)C3)ncn1-c1ccccc1` [Compound 2] had a melting point of 214 to 219 °C. Still for that read-out and setting: then `Cc1c(C(=O)N[C@H]2C[C@H]3CC[C@]2(C)C3(C)C)ncn1-c1ccccc1` [Compound 4], with 209 to 212 °C; and `O=C(NC12CC3CC(CC(C3)C1)C2)c1cn(-c2ccccc2)cn1` [Compound 6], with 198 to 200 °C. `O=C(NC1C2CC3CC(C2)CC1C3)c1cn(-c2ccccc2)cn1` (stereo not drawn) [Compound 7] came in with a melting point of 232 to 234 °C. The molecule `Cc1nc(C(=O)NC23CC4CC(CC(C4)C2)C3)cn1-c1ccccc1` [Compound 8, N-adamantyl-2-methyl-1-phenyl-1H-imidazole-4-carboxamide] registered a melting point of 207 to 210 °C.

Regarding `Cc1nc(C(=O)NCC2CCC3C(C)(C)C34CC24)cn1-c1ccccc1` (stereo not drawn) [Compound 9], the melting point was in the range of 124 to 127 °C. Consider `Cc1nc(C(=O)NC23CC4CC(CC(C4)C2)C3)c(C)n1-c1ccccc1` [Compound 11], for which the Ki in data set [1] is 1 nM; in data set [2], > 1000 nM. As for `COc1cccc(-n2c(C)nc(C(=O)NCC3CCC4C(C)(C)C45CC35)c2C)c1` (stereo not drawn) [Compound 12], the melting point fell in the range of 153 to 155 °C. As to `Cc1nc(C(=O)NC23CC4CC(CC(C4)C2)C3)c(C)n1C1CCCCC1` [Compound 14], the results for the Ki in data set [1] and in data set [2] were 6.31 nM and > 1000 nM, respectively. For `CCc1c(C(=O)NC23CC4CC(CC(C4)C2)C3)nc(C)n1-c1ccccc1` [Compound 15] the same measures were < 1 nM and 631 nM. For `CCc1nc(C(=O)NC23CC4CC(CC(C4)C2)C3)cn1-c1ccccc1` [Compound 20], the Ki in data set [1] is 10 nM; in data set [2], 251 nM.

Take `Cc1c(C(=O)NCC2CCC3C(C)(C)C34CC24)ncn1CCCNS(C)(=O)=O` (stereo not drawn) [Compound 22]: the melting point lay within 84 to 108 °C.

For `CCCCCCC(=O)c1nc(C)n(-c2ccccc2)c1C` [Compound 26], the Ki in data set [1] (setting [3]) is 158 nM. Molecule `O=C(NC12CC3CC(CC(C3)C1)C2)c1ncn(-c2ccccc2)c1Br` [Compound 27, N-(adamant-1-yl)-5-bromo-1-phenyl-1H-imidazole-4-carboxamide] gave a melting point of 229 to 232 °C. For the molecule `Cc1nc(C(=O)NC23CC4CC(CC(C4)C2)C3)c(Br)n1-c1ccccc1` [Compound 33A], the Ki is 6.31 nM in data set [1] and 794 nM in data set [2] (membranes of CHO cells stably transfected with human CB1 receptor, [3H]CP-55,940 radioligand, read-out: Human cannabinoid-CB1 receptor In vitro affinity - pKi (converted)). `Cc1nc(C(=O)NC23CC4CC(CC(C4)C2)C3)c(Cl)n1-c1ccccc1` [Compound 33] gave a Ki in data set [1] of 7.94 nM.

Molecule `Cc1nc(C(=O)NCc2ccccc2C(F)(F)F)c(C)n1-c1ccccc1` [Compound 44] registered a melting point of 76 to 79 °C. Besides, the Ki in data set [1] (setting [3]) was 1.58 nM.

The molecule `Cc1nc(C(=O)Nc2cccc3ncccc23)c(C)n1-c1ccccc1` [Compound 46] returned a melting point of 139 to 141 °C. Same read-out and setting: then `Cc1nc(C(=O)NC23CC4CC(CC(O)(C4)C2)C3)c(C)n1-c1ccccc1` [Compound 48, N-(3 hydroxyadamant-1-yl)-2,5-dimethyl-1-phenyl-1H-imidazole-4-carboxamide], with 215 to 220 °C. Regarding `Cc1nc(C(=O)NC2C3CC4CC(C3)CC2C4)c(C)n1-c1ccccc1` (stereo not drawn) [Compound 49], the melting point was 245 to 247 °C. The same molecule gave a Ki in data set [1] of 2.51 nM. For the same molecule, in data set [2], the Ki is > 1000 nM.

For the molecule `Cc1c(C(=O)NC23CC4CC(CC(C4)C2)C3)nc(C(F)(F)F)n1-c1ccccc1` [Compound 64], the melting point lay in the range of 170 to 172 °C. Same read-out and setting: then `Cc1nc(C(=O)Nc2cccc(Cl)c2Cl)c(C)n1-c1ccccc1` [Compound 65, N-(2,3-dichlorophenyl)-2,5-dimethyl-1-phenyl-1H-imidazole-4-carboxamide], with 127 to 129 °C. On to `Cc1nc(C(=O)NC2CCCCCCC2)c(C)n1-c1ccccc1` [Compound 72], for which the Ki in data set [1] is 5.01 nM. With “N-[(1R,2S,5R)-rel-6,6-dimethylbicyclo[3.1.1]heptan-2-methyl]-5-methyl-1-phenyl-1H-imidazole-4-carboxamide [Compound 1]”, in data set [1] (membranes of CHO cells stably transfected with human CB2 receptor, [3H]CP-55,940 radioligand), the “Human cannabinoid-CB2 receptor In vitro affinity - pKi value” was found to be 7.3. For the same molecule, the “Human cannabinoid-CB1 receptor In vitro affinity - pKi” value in data set [2] (membranes of CHO cells stably transfected with human CB1 receptor, [3H]CP-55,940 radioligand) is listed as <6.0.
